According to patent publication US20140249135A1, “PIM KINASE INHIBITORS AND METHODS OF THEIR USE” (NOVARTIS AG, priority 2007, published 2014):
Like-named read-outs stand apart in the source and are kept apart here.

Legend:
Pim1 kinase = Pim1 kinase (Homo sapiens, UniProt P11309); experiment: Pim1 ATP depletion assay; format: biochemical; conditions: Pim1 ATP depletion assay; read-out: IC50 (μM) PIM1;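 also: Luciferase-luciferin luminescence readout of residual ATP after PIM1 transfers phosphate to a peptide substrate, 40 µM ATP added, reaction run to roughly half ATP consumption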
Pim3 kinase = Pim3 kinase (Homo sapiens, UniProt Q86V86); experiment: Pim3 ATP depletion assay; format: biochemical; conditions: read-out: IC50 (μM) PIM3
Flt3 kinase = molecular target: T1, Flt3 kinase (Homo sapiens, UniProt P36888); experiment: Flt3 AlphaScreen assay
T1 sequence (P36888 27-993): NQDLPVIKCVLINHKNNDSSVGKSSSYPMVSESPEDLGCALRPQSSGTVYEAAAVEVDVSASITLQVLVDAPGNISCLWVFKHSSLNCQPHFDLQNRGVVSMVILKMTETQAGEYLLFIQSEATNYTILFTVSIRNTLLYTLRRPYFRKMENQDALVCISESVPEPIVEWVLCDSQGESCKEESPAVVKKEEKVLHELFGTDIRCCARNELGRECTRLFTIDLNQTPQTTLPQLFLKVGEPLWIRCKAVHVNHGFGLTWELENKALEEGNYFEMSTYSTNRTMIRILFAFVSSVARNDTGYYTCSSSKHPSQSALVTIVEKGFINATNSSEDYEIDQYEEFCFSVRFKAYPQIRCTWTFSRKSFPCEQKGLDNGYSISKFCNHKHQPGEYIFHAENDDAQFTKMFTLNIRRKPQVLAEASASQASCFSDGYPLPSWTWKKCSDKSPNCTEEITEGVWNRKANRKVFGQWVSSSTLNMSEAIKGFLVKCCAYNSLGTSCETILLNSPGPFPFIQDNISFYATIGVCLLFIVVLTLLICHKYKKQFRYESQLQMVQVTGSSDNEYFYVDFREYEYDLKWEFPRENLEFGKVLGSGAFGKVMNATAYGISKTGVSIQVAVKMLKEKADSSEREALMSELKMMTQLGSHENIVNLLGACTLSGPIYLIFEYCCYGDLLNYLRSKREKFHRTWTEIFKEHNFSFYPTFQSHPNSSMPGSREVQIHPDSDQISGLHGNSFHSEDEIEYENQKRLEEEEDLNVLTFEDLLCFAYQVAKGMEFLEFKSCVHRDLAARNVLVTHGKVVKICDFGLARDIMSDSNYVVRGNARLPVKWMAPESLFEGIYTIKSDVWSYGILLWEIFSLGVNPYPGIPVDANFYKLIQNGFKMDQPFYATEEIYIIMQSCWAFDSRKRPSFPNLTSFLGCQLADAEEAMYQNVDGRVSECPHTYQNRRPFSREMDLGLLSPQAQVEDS

[1] = molecular target: T2, human full length PKCE enzyme (Homo sapiens, UniProt Q02156); experiment: In vitro PKCE assay; format: biochemical; conditions: 10 nM enzyme, 40 uM peptide substrate, 20 uM ATP, KinaseGlo Plus readout; read-out: PKCε IC50
T2 construct: human full length PKCE enzyme purchased from InVitrogen; purchased InVitrogen
T2 sequence (Q02156 1-737): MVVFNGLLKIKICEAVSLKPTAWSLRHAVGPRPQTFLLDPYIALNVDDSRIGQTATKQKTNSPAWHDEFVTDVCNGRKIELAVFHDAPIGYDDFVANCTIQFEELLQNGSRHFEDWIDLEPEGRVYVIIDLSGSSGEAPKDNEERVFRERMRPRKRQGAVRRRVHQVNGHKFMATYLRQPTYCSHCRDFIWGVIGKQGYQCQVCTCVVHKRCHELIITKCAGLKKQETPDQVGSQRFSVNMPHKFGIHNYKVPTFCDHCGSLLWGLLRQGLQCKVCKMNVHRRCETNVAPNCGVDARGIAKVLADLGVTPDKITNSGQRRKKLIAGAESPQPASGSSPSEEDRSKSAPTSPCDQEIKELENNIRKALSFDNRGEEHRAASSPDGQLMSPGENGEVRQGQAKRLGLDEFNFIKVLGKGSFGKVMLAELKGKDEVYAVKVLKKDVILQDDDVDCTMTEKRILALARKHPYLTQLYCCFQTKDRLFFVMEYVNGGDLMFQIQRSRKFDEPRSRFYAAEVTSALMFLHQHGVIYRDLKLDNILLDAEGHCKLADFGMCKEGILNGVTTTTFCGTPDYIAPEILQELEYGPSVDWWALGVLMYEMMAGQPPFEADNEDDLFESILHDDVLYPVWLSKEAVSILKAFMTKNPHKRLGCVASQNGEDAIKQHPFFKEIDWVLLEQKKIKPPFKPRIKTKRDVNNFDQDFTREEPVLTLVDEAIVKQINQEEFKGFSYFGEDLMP

Pim2 kinase = Pim2 kinase (Homo sapiens, UniProt Q9P1W9); experiment: Pim2 ATP depletion assay; format: biochemical; conditions: read-out: IC50 (μM) PIM2;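 also: Luciferase-based luminescent readout of ATP remaining after PIM2 phosphorylates a BAD peptide, final 5 nM enzyme, 4 µM ATP, 10 µM peptide, 2.5% DMSO, run to roughly half ATP consumption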
MV4-11 cells = experiment: Cell proliferation assay (CellTiter-Glo), MV4-11; format: cell-based; conditions: Homo sapiens
Method: HEL 92.1.7 cells (ATTC No. TIB-180, an erythroleukemia line derived from malignant peripheral blood), MV4-11 cells (ATCC No. CRL-9591, a human acute monocytic leukemia line) and PC3 cells (ATCC No. CRL-1435, a human prostatic adenocarcinoma line) were cultured in RPMI1640 supplemented with 10% FBS, sodium pyruvate and antibiotics. Cells were plated in the same medium at a density of 1000 cells per well into 96 well tissue culture plates, with outside wells vacant, on the day of assay. Test compounds supplied in DMSO were diluted into DMSO at 500 times the desired final concentrations before dilution into culture media to 2 times final concentrations. Equal volumes of 2× compounds were added to the cells in 96 well plates and incubated at 37° C. for 3 days. After 3 days plates were equilibrated to room temperature and equal volume of CellTiter-Glow Reagent (Promega) was added to the culture wells. The plates were agitated briefly and luminescent signal was measured with luminometer.

PC3 cells = experiment: Cell proliferation assay (CellTiter-Glo), PC3; format: cell-based; conditions: Homo sapiens, PC-3
Outline: (§1)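 CellTiter-Glo luminescence was read after 3-day compound exposure at 37 °C of cells plated at 1000/well in RPMI1640 with 10% FBS. Signal was normalised between DMSO-treated and control-compound-treated wells. EC50 is the concentration giving 50% of maximal effect.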

KDR kinase = KDR kinase (Homo sapiens, UniProt P35968); experiment: KDR AlphaScreen assay; conditions: KDR IC50 (μM)
HEL 92.1.7 cells = experiment: Cell proliferation assay (CellTiter-Glo), HEL 92.1.7; format: cell-based; conditions: Homo sapiens, read-out: EC50 (μM) HEL 92.1.7
Outline: as §1

[2] = test system: MM1.s (human myeloma cell line); experiment: Cell proliferation assay (CellTiter-Glo), MM1.s; format: cell-based; conditions: MM1.s cells, read-out: EC50 (μM) MM1.s
Method: (§2) KMS 11 (human myeloma cell line), were cultured in IMDM supplemented with 10% FBS, sodium pyruvate and antibiotics. Cells were plated in the same medium at a density of 2000 cells per well into 96 well tissue culture plates, with outside wells vacant, on the day of assay. MM1.s (human myeloma cell line), were cultured in RPMI1640 supplemented with 10% FBS, sodium pyruvate and antibiotics. Cells were plated in the same medium at a density of 5000 cells per well into 96 well tissue culture plates, with outside wells vacant, on the day of assay.
(§3) Test compounds supplied in DMSO were diluted into DMSO at 500 times the desired final concentrations before dilution into culture media to 2 times final concentrations. Equal volumes of 2× compounds were added to the cells in 96 well plates and incubated at 37° C. for 3 days.
(§4) After 3 days plates were equilibrated to room temperature and equal volume of CellTiter-Glow Reagent (Promega) was added to the culture wells. The plates were agitated briefly and luminescent signal was measured with luminometer. The percent inhibition of the signal seen in cells treated with DMSO alone vs. cells treated with control compound was calculated and used to determine EC50 values (i.e., the concentration of a test compound that is required to obtain 50% of the maximum effect in the cells) for tested compounds, as shown in Example 763.

[3] = test system: KMS 11 (human myeloma cell line); experiment: Cell proliferation assay (CellTiter-Glo), KMS 11; format: cell-based; conditions: KMS11 cells, read-out: EC50 (μM) KMS11
Method: as §2, §3, §4

[4] = cell proliferation, MV4-11 cells, read-out: EC50 (μM) MV-4-11

Chain of Pim2 kinase (Q9P1W9 whole entry): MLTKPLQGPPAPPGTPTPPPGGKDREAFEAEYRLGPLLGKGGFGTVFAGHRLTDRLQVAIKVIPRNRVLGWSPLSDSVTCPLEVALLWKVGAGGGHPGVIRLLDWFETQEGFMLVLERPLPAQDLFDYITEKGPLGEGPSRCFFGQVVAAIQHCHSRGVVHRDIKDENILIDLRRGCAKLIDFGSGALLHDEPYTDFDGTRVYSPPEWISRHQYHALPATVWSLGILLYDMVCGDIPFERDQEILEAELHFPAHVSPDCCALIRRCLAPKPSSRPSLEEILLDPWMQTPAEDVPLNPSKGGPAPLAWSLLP
Chain of Pim1 kinase (P11309 whole entry): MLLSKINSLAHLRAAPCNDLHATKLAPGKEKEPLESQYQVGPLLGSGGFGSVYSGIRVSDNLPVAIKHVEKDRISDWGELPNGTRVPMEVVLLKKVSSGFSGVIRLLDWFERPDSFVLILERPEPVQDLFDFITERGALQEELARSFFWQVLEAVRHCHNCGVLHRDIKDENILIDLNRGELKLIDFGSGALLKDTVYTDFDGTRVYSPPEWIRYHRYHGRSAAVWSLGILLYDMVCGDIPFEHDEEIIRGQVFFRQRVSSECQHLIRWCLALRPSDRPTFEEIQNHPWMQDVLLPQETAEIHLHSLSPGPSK
Chain of KDR kinase (P35968 20-1356): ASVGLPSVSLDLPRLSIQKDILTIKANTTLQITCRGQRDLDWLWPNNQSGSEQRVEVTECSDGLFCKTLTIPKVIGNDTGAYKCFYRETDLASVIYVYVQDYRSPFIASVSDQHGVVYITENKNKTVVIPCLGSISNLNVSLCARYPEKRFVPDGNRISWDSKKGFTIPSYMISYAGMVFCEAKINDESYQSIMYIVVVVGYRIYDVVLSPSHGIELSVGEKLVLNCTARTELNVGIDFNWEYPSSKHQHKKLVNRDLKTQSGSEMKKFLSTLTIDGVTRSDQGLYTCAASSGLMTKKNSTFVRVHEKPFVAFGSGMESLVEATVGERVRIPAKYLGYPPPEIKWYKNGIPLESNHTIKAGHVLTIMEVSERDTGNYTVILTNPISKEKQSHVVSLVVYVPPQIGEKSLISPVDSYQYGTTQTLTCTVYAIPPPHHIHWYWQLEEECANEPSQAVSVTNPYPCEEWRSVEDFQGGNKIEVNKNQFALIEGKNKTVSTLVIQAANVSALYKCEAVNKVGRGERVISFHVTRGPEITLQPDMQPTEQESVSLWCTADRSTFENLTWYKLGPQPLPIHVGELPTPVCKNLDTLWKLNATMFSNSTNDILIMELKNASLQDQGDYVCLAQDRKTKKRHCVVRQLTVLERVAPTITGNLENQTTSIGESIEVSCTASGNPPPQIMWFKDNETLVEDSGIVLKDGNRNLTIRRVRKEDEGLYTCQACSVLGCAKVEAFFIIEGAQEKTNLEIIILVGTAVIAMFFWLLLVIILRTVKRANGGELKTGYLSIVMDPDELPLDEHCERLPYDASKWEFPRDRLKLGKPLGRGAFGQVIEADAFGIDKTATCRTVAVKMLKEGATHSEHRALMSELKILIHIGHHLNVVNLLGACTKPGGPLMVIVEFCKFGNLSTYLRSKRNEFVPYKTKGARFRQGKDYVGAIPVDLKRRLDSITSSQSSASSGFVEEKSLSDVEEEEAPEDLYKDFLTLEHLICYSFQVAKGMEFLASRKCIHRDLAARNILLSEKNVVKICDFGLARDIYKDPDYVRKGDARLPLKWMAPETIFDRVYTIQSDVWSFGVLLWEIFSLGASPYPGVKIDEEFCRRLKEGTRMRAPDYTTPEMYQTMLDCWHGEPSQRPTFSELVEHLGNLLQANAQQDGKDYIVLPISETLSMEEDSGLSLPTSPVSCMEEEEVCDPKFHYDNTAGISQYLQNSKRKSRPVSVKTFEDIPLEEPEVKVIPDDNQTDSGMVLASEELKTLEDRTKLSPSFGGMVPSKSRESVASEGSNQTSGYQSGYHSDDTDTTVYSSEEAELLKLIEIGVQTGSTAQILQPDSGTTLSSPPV

Row | IC50 (Pim1 kinase) [µM] | IC50 (Pim3 kinase) [µM] | IC50 (Flt3 kinase) [µM] | IC50 [1] [µM] | IC50 (Pim2 kinase) [µM] | EC50 (PC3 cells) [µM] | IC50 (KDR kinase) [µM] | EC50 [2] [µM] | EC50 [3] [µM] | EC50 (MV4-11 cells; [4]) [µM] | SMILES | EC50 (MV4-11 cells; MV4-11, read-out: EC50 (μM) MV-4-11) [µM] | EC50 (HEL 92.1.7 cells) [µM]
1 | 1 to 10 | 1 to 10 | 10 to 25 | 10 to 25 | > 25 |  |  |  |  |  | CN(C)CCN(C)c1ccncc1NC(=O)c1nc(Br)cnc1N [Example 124, 3-amino-6-bromo-N-(4-{[2-(dimethylamino)ethyl]-(methyl)amino}pyridin-3-yl)pyrazine-2-carboxamide] |  | 
2 | < 1 | < 1 |  |  | < 1 | > 10 |  | < 1 | 1 to 5 |  | CC(C)NC(=O)c1ccc(F)c(-c2ccc(N)c(C(=O)Nc3cnccc3N3CCC[C@H](N)C3)n2)c1 [Example 317, 3-amino-6-(2-fluoro-5-iso-propylcarbamoyl-phenyl)-pyridine-2-carboxylic acid ((S)-3-amino-3,4,5,6-tetra-hydro-2H-[1,4′]bipyridinyl-3′-yl)-amide] |  | 1 to 5
3 | < 1 | < 1 |  |  | < 1 |  |  | < 1 | < 1 |  | CN(C)C(=O)c1ccc(F)c(-c2ccc(N)c(C(=O)Nc3cnccc3N3CCC[C@H](N)C3)n2)c1 [Example 328, 3-amino-6-(5-dimethyl-carbamoyl-2-fluoro-phenyl)-pyridine-2-carboxylic acid ((S)-3-amino-3,4,5,6-tetra-hydro-2H-[1,4′]bipyridinyl-3′-yl)-amide] |  | 1 to 5
4 | < 1 | < 1 |  | 1 to 10 | < 1 | 5 to 10 | 10 to 25 | < 1 | < 1 |  | Nc1ccc(-c2c(F)cccc2F)nc1C(=O)Nc1cnccc1N1CCC[C@H](N)C1 [Example 425, 3-amino-6-(2,6-difluoro-phenyl)-pyridine-2-carboxylic acid ((S)-3-amino-3,4,5,6-tetrahydro-2H-[1,4′]bipyridinyl-3′-yl)-amide] |  | < 1
5 | < 1 | < 1 |  | 1 to 10 | < 1 |  | 10 to 25 |  |  | < 1 | Nc1ccc(-c2ccccc2Cl)nc1C(=O)Nc1cnccc1N1CCC[C@H](N)C1 [Example 433, 3-amino-6-(2-chloro-phenyl)-pyridine-2-carboxylic acid ((S)-3-amino-3,4,5,6-tetrahydro-2H-[1,4′]bipyridinyl-3′-yl)-amide] |  | 1 to 5
6 |  |  |  |  |  |  |  |  |  | < 1 | Nc1ccc(-c2ccccc2F)nc1C(=O)Nc1cnccc1N1CCC[C@H](N)C1 [Example 434, 3-amino-6-(2-fluoro-phenyl)-pyridine-2-carboxylic acid ((S)-3-amino-3,4,5,6-tetrahydro-2H-[1,4′]bipyridinyl-3′-yl)-amide] |  | 1 to 5
7 | < 1 | < 1 |  |  | < 1 |  | 10 to 25 | 5 to 10 | 1 to 5 |  | N[C@H]1CCCN(c2ccncc2NC(=O)c2cccc(-c3c(F)cccc3F)n2)C1 [Example 454, 6-(2,6-Difluoro-phenyl)-pyridine-2-carboxylic acid (3-amino-3,4,5,6-tetrahydro-2H-[1,4′]bi-pyridinyl-3′-yl)-amide] |  | 
8 | < 1 | < 1 |  |  | < 1 |  | 1 to 10 | 5 to 10 | 5 to 10 |  | COCCOc1nc(-c2ccc(N)c(C(=O)Nc3cnccc3N3CCC[C@H](N)C3)n2)cnc1N [Example 520, 3-Amino-6-[5-amino-6-(2-methoxy-ethoxy)-pyrazin-2-yl]-pyridine-2-carboxylic acid (3-amino-3,4,5,6-tetrahydro-2H-[1,4′]bipyridinyl-3′-yl)-amide] |  | 

Row | SMILES | IC50 (Pim1 kinase) [µM] | IC50 (Pim3 kinase) [µM] | IC50 (Flt3 kinase) [µM] | IC50 [1] [µM] | IC50 (Pim2 kinase) [µM] | EC50 (PC3 cells) [µM] | IC50 (KDR kinase) [µM] | EC50 [2] [µM] | EC50 [3] [µM] | EC50 (MV4-11 cells; [4]) [µM] | EC50 (MV4-11 cells; MV4-11, read-out: EC50 (μM) MV-4-11) [µM] | EC50 (HEL 92.1.7 cells) [µM]
9 | Nc1nccnc1C(=O)Nc1cnccc1N1CCCC(N)C1 (stereo not shown) [Example 187, 3-amino-N-[4-(3-aminopiperidin-1-yl)pyridin-3-yl]pyrazine-2-carboxamide] |  | < 1 |  | < 1 | < 1 | 1 to 5 | > 25 |  |  |  | < 1 | 1 to 5
